Compound | melting point
CN1CCc2cc(Cl)c(O)cc2C1C1(c2ccc(Cl)cc2)CCC1 (stereo not given) | 168 to 171 °C
Cc1cnc2c(c1)CCCC2=NO | 188 °C
CNc1nc(Nc2ccc(Cl)c(Cl)c2)ncc1N1C(=O)CNC1=O | 301 °C
O=C(c1ccc(Cl)cc1)c1cc(-c2ccc(Cl)cc2)c(N2CCOCC2)s1 | 145 to 149 °C
CCOc1csc2c(=O)c(S(C)=O)cn(C)c12 (stereo not given) | 210 to 214 °C
CCCCCCCCCc1ccc(Oc2cccc(C#N)c2C#N)cc1 | 74 to 81 °C
N#Cc1ccccc1CN1CCSC1=O | 116 to 117 °C
Nc1cc(CNc2ccccc2C(=O)Nc2cccc(C(F)(F)F)c2)ccn1 | 64 °C
CCOC(=O)CN1C(=O)Nc2cccc(Cl)c2C1C (stereo not given) | 143 to 144 °C
C=CCNc1nc(NC(C)(C)C)c2scc(C)c2n1 | 89 to 90 °C
CCC(=O)Oc1ccc2c(=O)c(C(=O)CC)c(CC)oc2c1 | 84 °C
COc1ccc(-n2c(=O)c(O)nc3cccnc32)cc1 | > 300 °C
O=P(O)(O)C(F)(F)c1ccc(CN(Cc2ccc(C(F)(F)P(=O)(O)O)cc2)S(=O)(=O)c2ccccc2Cl)cc1 | 170 to 172 °C
CC(=O)Nc1ccc(Oc2ccc3c(c2)OCC(=O)N3)cc1 | 230 to 232 °C
C[C@H](N)C(=O)N(CC(=O)O)C1Cc2ccccc2C1 | 180 to 182 °C
COC(=O)[C@@H](O)[C@@H](OC(C)=O)[C@H](OC(C)=O)[C@H](C=O)OC(C)=O | 104 to 110 °C
O=C1N(Cc2cc3ccccc3o2)c2ccccc2C12COc1cc3c(cc12)OCO3 (stereo not given) | 167 to 168 °C
Cc1cnc2c(C#N)c(C)nn2c1-c1ccccc1 | 208 to 210 °C
Cc1c(Br)cc(C(C)(C)C)c(O)c1C1=Nc2cc(Cl)ccc2S(=O)(=O)N1 | 270 to 271 °C
COC(=O)Cc1cc(=O)[nH]c2cc(F)ccc12 | 255 to 256 °C
CC[C@H](CS[C@@H](CCc1ccccc1C(C)(C)O)c1cccc(C=Cc2ccc3ccc(Cl)cc3n2)c1)C(=O)O | 115 to 117 °C
CC(=O)CS(=O)(=O)N(C)C | 47 to 49 °C
CCC1(C(=O)C(=O)NC(C)(C)C)CC1 | 37.5 to 39 °C
COc1cc(OC)nc(NC(=O)NS(=O)(=O)c2ccccc2CCCl)n1 | 169 to 171 °C
O=C1C2CCCCC2C(=O)N1CCS (stereo not given) | 79 to 80 °C

Compound | melting point
CCOC(=O)c1cn(Cc2ccccc2)nc1OCc1ccc(OCc2nc(-c3ccco3)oc2C)cc1OC | 137 to 138 °C
COC(=O)c1ccc(-c2nnc3n2-c2cccnc2Nc2ccccc2-3)cc1 | > 300 °C
O=C1NC(=O)C(Sc2ccc(F)cc2)S1 (stereo not given) | 99 to 100 °C
CC(C(=O)O)c1ccc2c(c1)C(=O)c1cc(Cl)ccc1CS2 (stereo not given) | 128 to 131 °C
CCc1cccc(C)c1CNc1cc(C(=O)NCCO)cc2c1nc(C)n2C | 200 to 201 °C
Fc1ccc(-c2cc(NCc3cccc(NCc4ccccc4)n3)n[nH]2)cc1 | 117 to 118 °C
CN(C)CC(c1ccccc1)c1nnc2n1-c1ccc(I)cc1C(c1ccccc1)=NC2 (stereo not given) | 192 to 194 °C
CCOC(=O)C1=C(C)Nc2n[nH]cc2C1c1ccccc1C(F)(F)F (stereo not given) | 259 to 262 °C
COc1cccc(-c2cnn3c(-c4cccc(NC(=O)CC(C)C)c4)ccnc23)c1 | 153 to 154 °C
Cc1ccc(C(NC(=O)[C@H](CCC(=O)O)NC(=O)c2cc3ccccc3[nH]2)c2ccc(C)cc2)cc1 | > 260 °C
COC(=O)c1ccc(OCCNC(=O)C2Cc3ccccc3N2S(=O)(=O)c2ccc(-c3ccc(F)cc3C)cc2)cc1F (stereo not given) | 66 to 75 °C
CCOC(=O)C1=C2NCCN2C(C)=C(C(=O)OC)C1c1ccccc1[N+](=O)[O-] (stereo not given) | 185 °C
CCn1cc(C(=O)O)c(=O)c2cc(F)c(N3CCC(C(C)N)C3)c(F)c21 (stereo not given) | 212 to 217 °C
COc1ccc(-c2c(Cl)c(CN3C(=O)COC3=O)nc3sc4c(c23)CCC(C(N)=O)C4)cc1 (stereo not given) | 155 to 156 °C
COc1ccc(C(C)=O)cc1NC(=O)C(C)CCl (stereo not given) | 92 to 97 °C
CS(=O)(=O)N[C@@H]1CCCC[C@H]1Nc1nc(Nc2ccc3c(c2)CCC(F)(F)CC3)ncc1Cl | 118 to 128 °C
O=C1NC(Cc2ccccc2)C(=O)N/C1=C\c1ccc(O)cn1 (stereo not given) | 251 to 252 °C
COc1ccc(-c2nc(-c3cccn3Cc3ccccc3)[nH]c2-c2ccc(OC)cc2)cc1 | 183 °C
CCC(=S)N(c1c(C)cccc1C)C(C)C(C)=S (stereo not given) | 88 to 92 °C
O=C(Nc1ccc(Oc2ccccc2)cc1)c1cc([N+](=O)[O-])ccc1Cl | 128 °C
NC(=S)N(N)Cc1cccc(Cl)c1 | 153 to 158 °C
CC(C)(C)C(=O)c1ccc(CC(=O)O)cc1 | 111 to 112 °C
COc1cc(C(=O)C(Br)CCC2CCCCC2)c(OC)cc1Cl (stereo not given) | 73 to 74 °C
CC(C)(C)C(=O)c1ccc(C(=O)NC(=O)c2ccc(F)cc2)cc1 | 100 to 101 °C
O=C(O)C1Sc2ccccc2-c2ccccc21 (stereo not given) | 156 to 159 °C

Compound | melting point
CC(C)c1ccc(S(=O)(=O)c2ccc(F)cc2)c(C(C)C)c1 | 75 to 80 °C
CCCCN(C1CCCOc2c(C)cc(Cl)cc21)S(=O)(=O)CC (stereo not given) | 83 to 87 °C
CCn1c(NC)n[nH]c1=O | 208 to 210 °C
Cn1cc(C(O)(c2ccc3c(cnn3C(=O)c3ccccc3)c2)C(F)(F)F)c2ccccc21 (stereo not given) | 102 to 103 °C
C=CCn1c(C)nc2c(O)c(C(=O)[C@@H]3OC(C)(C)O[C@H]3c3ccccc3)ccc21 | 123 °C
CC1=NS(=O)(=O)N(C)C(Oc2cccnc2)=N1 | 137 to 138 °C
CN1C2C=C(c3cc4ccccc4s3)CC1CCC2 (stereo not given) | 91.3 to 93.5 °C
CCO/C(=N/O)C1Cc2cc(C(=O)c3ccccc3F)c(O)c(C)c2O1 (stereo not given) | 70 to 71 °C
O=C(NC(=O)c1ccccc1Cl)Nc1cnc(C(F)(F)F)cn1 | 219 to 220 °C
CNC(=O)C1CN(CCCC(c2ccc(F)cc2)c2ccc(F)cc2)CCN1CC(=O)Nc1c(C)cc(C)cc1C (stereo not given) | 90.2 °C
COc1ccc(N2CCN(c3ccc(NC(=O)NN)nc3)CC2)cc1 | 260 to 263 °C
O=C(COc1cccnc1)c1ccccc1 | 81 to 82 °C
Cn1cc(C(=O)NCc2ccc(Cl)cc2)c(=O)c2cc(/C=C/CO)ccc21 | 103 to 106 °C
CCCN(CCC)C(=O)Cn1c(-c2ccc(C(F)(F)F)cc2)nc2cccnc21 | 138 to 139 °C
COC(=O)c1ccc(CN2C(=O)C(CCOc3ccc(CCNC(=O)OC(C)(C)C)cc3)Oc3ccccc32)cc1 (stereo not given) | 110 to 112 °C
CCNC(=O)/C=C/c1cccc(Br)c1 | 89 to 90 °C
CCc1nc2cc(C(F)(F)F)c(Cl)cc2n1-c1ccc(CCOC(=O)NS(=O)(=O)c2ccccn2)cc1 | 127 to 130 °C
CCOP(=S)(OCC)Oc1c(C(=O)c2ccccc2Cl)c(C)nn1C | 71 to 74 °C
CC1(C)NS(=O)(=O)c2cc([N+](=O)[O-])ccc21 | 187 °C
CN(C)C=Nc1nc(OS(=O)(=O)c2ccccc2)ncc1F | 124 to 125 °C
Cc1cc2c(cc1C(F)(F)F)NC(=O)CC(c1cccc(-n3nncc3CNC3CC3)c1)=N2 | 181 °C
COc1ccc(/C=C/c2cc(/C=C/c3c[nH]c4ccccc34)n[nH]2)cc1OCc1ccccn1 | 232 to 243 °C
CCOC(=O)c1cc2cc(C)cc(C)c2[nH]1 | 141 to 143 °C
CC(C)CCC(C)Oc1c(-c2ccc(S(C)(=O)=O)cc2)cnn(-c2ccc(F)cc2)c1=O (stereo not given) | 102 to 103 °C
CCCc1c(OCCCS(=O)(=O)c2ccc(CC(=O)O)c(Cl)c2Cl)ccc(C(C)=O)c1O | 180 to 181 °C

Compound | melting point
CC(C)CCN1C(=O)C(NC(=O)Nc2cccc(N(C)C)c2)C(=O)N(CC23CC4CC(CC(C4)C2)C3)c2ccccc21 (stereo not given) | 226 to 227 °C
Nc1ccc2nc3c(nc2c1)CCCC3 | 150 to 152 °C
Cc1oc(-c2cccc(Br)c2)nc1CCO | 92 to 93 °C
CN(C)c1ccc(C2(c3ccc(N(C)C)cc3N(C)C)OC(=O)c3ccccc32)c(N(C)C)c1 | 186 to 188 °C
CCC(C(=O)N(C)C)n1cc(Cl)c(-c2ccccc2)n1 (stereo not given) | 94 to 96.5 °C
CC(=O)NC[C@H]1CN(c2ccc(N3C[C@H]4CN(C(=O)OCc5ccccc5)C[C@H]4C3)c(F)c2)C(=O)O1 | 165 to 168 °C
Oc1cccc2c1OCCCO2 | 112 to 114 °C
CC(C)(C)NC(=O)CN1C(=O)C(N)CC(c2ccccc2F)c2ccccc21 (stereo not given) | 190 to 195 °C
Cc1ccc(S(=O)(=O)OCC2Cc3cccc(-c4cccc(C(F)(F)F)c4)c3O2)cc1 (stereo not given) | 90 to 93 °C
CC(=NOc1ccc(C=O)cc1)c1ccc(C)cc1 | 96 to 98 °C
COc1ccc2nc(C(=O)NCc3ccc(C(=O)O)cc3)[nH]c(=O)c2c1 | 287 to 288 °C
Cc1cc(-c2cccc(Cl)c2C=O)ccc1F | 74 to 79 °C
COC(=O)c1cccc2c(C=O)c[nH]c12 | 153 to 154 °C
CCNCC(=O)Nc1cc(NS(C)(=O)=O)c(Oc2ccccc2)cc1[N+](=O)[O-] | 156 to 157 °C
CSc1nc(SCc2ccccc2)n[nH]1 | 80 to 82 °C
CCCCCCCCCCCCCCCC(=O)OC(COCc1ccc(OC)cc1)COC(=O)CCCCCCCCCCCNC(=O)OCc1ccccc1 (stereo not given) | 44 to 47 °C
CCOC(=O)c1ccnc(NC(=O)CCc2ccccc2)c1 | 107 to 108 °C
Cc1cc(NC(=O)c2cn(-c3ccccc3)c3ccccc3c2=O)no1 | 163 to 164 °C
CCOC(=O)c1ccc(NC(C)=O)cc1C(=O)OCC | 118 to 121 °C
CCOC1=NS(=O)(=O)N=C1c1ccccc1 | 204 to 206 °C
NC(=O)c1c(F)ccc(OCc2nc(-c3ccc(O)cc3)no2)c1F | 209 to 210 °C
O=C(CNCc1ccccc1)Nc1cccc2[nH]ccc12 | 158 to 161 °C
CCOC(=O)C1=C2NCCN2CCC1 | 89 °C
COc1ccc2c(c1)[C@@H](O)[C@H](Br)CO2 (relative stereo) | 67 to 72 °C
COC(=O)CC(C#Cc1cccc(-c2nnc(C)o2)c1)c1ccc(OC)c(OC2CCCC2)c1 (racemic) | 104 to 105 °C
